Source: the Kinase Knowledgebase extract (Sharma et al. 2016)

Molecular target: EGFR (human) (UniProt P00533)
Conditions: a431

Sequence of EGFR (human) (P00533 whole entry, looked up): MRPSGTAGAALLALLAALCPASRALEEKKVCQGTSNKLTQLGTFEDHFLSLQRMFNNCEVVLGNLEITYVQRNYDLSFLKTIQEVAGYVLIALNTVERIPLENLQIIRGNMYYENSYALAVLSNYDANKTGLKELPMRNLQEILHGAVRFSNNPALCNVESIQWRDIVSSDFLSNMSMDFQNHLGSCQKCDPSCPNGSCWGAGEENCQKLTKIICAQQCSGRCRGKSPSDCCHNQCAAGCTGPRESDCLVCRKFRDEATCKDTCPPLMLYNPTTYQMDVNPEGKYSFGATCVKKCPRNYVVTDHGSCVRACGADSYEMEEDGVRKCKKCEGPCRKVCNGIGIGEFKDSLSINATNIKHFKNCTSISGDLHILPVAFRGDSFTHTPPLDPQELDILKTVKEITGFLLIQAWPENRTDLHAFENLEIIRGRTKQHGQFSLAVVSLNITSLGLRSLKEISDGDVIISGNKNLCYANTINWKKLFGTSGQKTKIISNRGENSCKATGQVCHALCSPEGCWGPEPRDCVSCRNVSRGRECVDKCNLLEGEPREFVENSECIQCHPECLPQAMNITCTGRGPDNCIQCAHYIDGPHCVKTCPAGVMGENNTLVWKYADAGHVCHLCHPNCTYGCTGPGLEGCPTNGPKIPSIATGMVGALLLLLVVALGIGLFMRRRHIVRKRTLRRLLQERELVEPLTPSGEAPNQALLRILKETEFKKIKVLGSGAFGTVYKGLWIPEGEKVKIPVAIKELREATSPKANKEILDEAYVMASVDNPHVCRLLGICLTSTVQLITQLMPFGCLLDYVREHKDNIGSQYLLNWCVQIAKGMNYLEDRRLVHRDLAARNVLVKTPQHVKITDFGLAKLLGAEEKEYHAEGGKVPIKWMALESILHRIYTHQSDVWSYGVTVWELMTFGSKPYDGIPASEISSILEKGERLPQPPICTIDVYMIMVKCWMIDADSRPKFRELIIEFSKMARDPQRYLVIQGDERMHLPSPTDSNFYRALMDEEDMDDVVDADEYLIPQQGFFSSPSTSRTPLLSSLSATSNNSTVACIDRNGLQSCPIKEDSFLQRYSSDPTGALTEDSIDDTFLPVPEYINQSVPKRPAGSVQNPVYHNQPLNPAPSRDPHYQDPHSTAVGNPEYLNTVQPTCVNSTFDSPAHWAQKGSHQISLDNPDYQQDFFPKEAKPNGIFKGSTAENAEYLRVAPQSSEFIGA

In order of falling IC50:
1. O=C(Nc1ccc2ncnc(Nc3cccc(Cl)c3)c2c1)c1cccc2c1OCCO2  71.1 µM
2. O=C(Nc1ccc2ncnc(Nc3cccc(Br)c3)c2c1)C1COc2ccccc2O1 (centres undefined)  65.3 µM
3. O=C(Nc1ccc2ncnc(Nc3cccc(Br)c3)c2c1)c1cccc2c1OCCO2  31.7 µM
4. O=C(Nc1ccc2ncnc(Nc3cccc(Cl)c3)c2c1)C1COc2ccccc2O1 (centres undefined)  29.7 µM
5. Brc1cccc(Nc2ncnc3ccc(NCc4ccc5c(c4)OCCCCO5)cc23)c1  22.4 µM
6. Clc1cccc(Nc2ncnc3ccc(NCc4ccc5c(c4)OCCCCO5)cc23)c1  19.9 µM
7. Brc1cccc(Nc2ncnc3ccc(NCc4ccc5c(c4)OCCO5)cc23)c1  17.1 µM
8. Brc1cccc(Nc2ncnc3ccc(NCc4ccc5c(c4)OCO5)cc23)c1  10.2 µM
9. Fc1cc(Br)ccc1Nc1ncnc2cc3c(cc12)OCCO3  6.28 µM
10. Brc1cccc(Nc2ncnc3ccc(NCc4ccc5c(c4)OCCCO5)cc23)c1  4.03 µM
11. Clc1cccc(Nc2ncnc3ccc(NCc4ccc5c(c4)OCCCO5)cc23)c1  3.76 µM
12. FC(F)(F)c1cccc(Nc2ncnc3cc4c(cc23)OCCO4)c1  0.77 µM
13. Brc1cccc(Nc2ncnc3cc4c(cc23)OCCO4)c1  0.75 µM
14. Cc1cccc(Nc2ncnc3cc4c(cc23)OCCO4)c1  0.67 µM

Molecular target: EGFR (human) (UniProt P00533)
Conditions: mcf7

In order of rising IC50:
1. Clc1cccc(Nc2ncnc3ccc(NCc4ccc5c(c4)OCCCO5)cc23)c1  6.22 µM
2. Brc1cccc(Nc2ncnc3ccc(NCc4ccc5c(c4)OCCCO5)cc23)c1  7.31 µM
3. Brc1cccc(Nc2ncnc3ccc(NCc4ccc5c(c4)OCCO5)cc23)c1  14.6 µM
4. Brc1cccc(Nc2ncnc3ccc(NCc4ccc5c(c4)OCO5)cc23)c1  21.6 µM
5. Clc1cccc(Nc2ncnc3ccc(NCc4ccc5c(c4)OCCCCO5)cc23)c1  31.9 µM
6. Brc1cccc(Nc2ncnc3ccc(NCc4ccc5c(c4)OCCCCO5)cc23)c1  47.8 µM
7. O=C(Nc1ccc2ncnc(Nc3cccc(Cl)c3)c2c1)C1COc2ccccc2O1 (centres undefined)  78 µM
8. O=C(Nc1ccc2ncnc(Nc3cccc(Br)c3)c2c1)c1cccc2c1OCCO2  92.8 µM
9. O=C(Nc1ccc2ncnc(Nc3cccc(Br)c3)c2c1)C1COc2ccccc2O1 (centres undefined)  152 µM
10. O=C(Nc1ccc2ncnc(Nc3cccc(Cl)c3)c2c1)c1cccc2c1OCCO2  153 µM

Molecular target: EGFR (human) (UniProt P00533)
Conditions: a549

O=C(Nc1ccc2ncnc(Nc3cccc(Br)c3)c2c1)C1COc2ccccc2O1 (centres undefined) and O=C(Nc1ccc2ncnc(Nc3cccc(Cl)c3)c2c1)C1COc2ccccc2O1 (centres undefined) are within 1.5-fold of each other in IC50: 112 µM for the first, 91.6 µM for the second.

Going from Brc1cccc(Nc2ncnc3ccc(NCc4ccc5c(c4)OCCCO5)cc23)c1 to Brc1cccc(Nc2ncnc3ccc(NCc4ccc5c(c4)OCCCCO5)cc23)c1, the IC50 rises from 22.6 µM to > 149 µM.

Clc1cccc(Nc2ncnc3ccc(NCc4ccc5c(c4)OCCCO5)cc23)c1 and Clc1cccc(Nc2ncnc3ccc(NCc4ccc5c(c4)OCCCCO5)cc23)c1 are within 1.5-fold of each other in IC50: 45.1 µM for the first, 67 µM for the second.

Brc1cccc(Nc2ncnc3ccc(NCc4ccc5c(c4)OCCO5)cc23)c1 and Brc1cccc(Nc2ncnc3ccc(NCc4ccc5c(c4)OCO5)cc23)c1 are within 1.5-fold of each other in IC50: 79.5 µM for the first, 103 µM for the second.

Compared with O=C(Nc1ccc2ncnc(Nc3cccc(Cl)c3)c2c1)c1cccc2c1OCCO2, O=C(Nc1ccc2ncnc(Nc3cccc(Br)c3)c2c1)c1cccc2c1OCCO2 is lower in IC50: > 153 µM for the first, 131 µM for the second.
